The results in this text go back to patent US20220242870A1, “HETEROCYCLE-FUSED PYRIMIDINE DERIVATIVE AND USE THEREOF” (VORONOI Inc., priority 2019, published 2022).

A value given as a limit tells only on which side of the number the result lay.

For one assay, the system named is RS4;11 cells. As to the kind of experiment: AML cell proliferation inhibitory activity (CellTiter-Glo). The format is cell-based. The settings on record: Homo sapiens, 72 hours. The procedure:
(§1) The inhibitory activities of the example compounds according to the present invention on the proliferation of acute myeloid leukemia (AML) cells expressing the FLT3 mutant gene were evaluated. Specifically, RS4;11 and MV4-11 cells as acute myeloid leukemia cells expressing the FLT3 mutant gene were cultured in RPMI-1640 (Invitrogen) adding 10% FBS. The cells were seeded into each well of a clear bottom white 96-well plate (Corning) at 3000 to 5000 cells 24 hours before compound treatment. The compound was diluted in DMSO (diluted each three-fold, to a total of 12 concentrations) and injected at 0.5 μL each so as to be a final concentration of 0.3 nM to 50 μM. After 72 hours of the compound treatment, they were treated with CellTiter-Glo Luminescent Cell Viability assay (Promega) and stored at room temperature for 10 minutes, and luminescence intensities were measured with a reader (SynergyNeo, Biotek) to count viable cells. Each experiment was performed three times repeatedly. The result values were calculated as the cell growth rate (%) compared to the control treated with the solvent. The graph was derived using the GraphPad Prism program (version 5.0), the GI50 (nM) values were calculated, and the results were shown in Table 3 below.
On the technique in general: ATP-based viability assays read luminescence as a measure of living cells.

Another assay deals with MV4-11 cells. Described as above. The format is cell-based. The settings on record: Homo sapiens, 72 hours. The procedure: as §1
A further assay deals with T1, human FLT3-ITD enzyme (Homo sapiens, UniProt P36888).
T1 sequence (P36888 1-993): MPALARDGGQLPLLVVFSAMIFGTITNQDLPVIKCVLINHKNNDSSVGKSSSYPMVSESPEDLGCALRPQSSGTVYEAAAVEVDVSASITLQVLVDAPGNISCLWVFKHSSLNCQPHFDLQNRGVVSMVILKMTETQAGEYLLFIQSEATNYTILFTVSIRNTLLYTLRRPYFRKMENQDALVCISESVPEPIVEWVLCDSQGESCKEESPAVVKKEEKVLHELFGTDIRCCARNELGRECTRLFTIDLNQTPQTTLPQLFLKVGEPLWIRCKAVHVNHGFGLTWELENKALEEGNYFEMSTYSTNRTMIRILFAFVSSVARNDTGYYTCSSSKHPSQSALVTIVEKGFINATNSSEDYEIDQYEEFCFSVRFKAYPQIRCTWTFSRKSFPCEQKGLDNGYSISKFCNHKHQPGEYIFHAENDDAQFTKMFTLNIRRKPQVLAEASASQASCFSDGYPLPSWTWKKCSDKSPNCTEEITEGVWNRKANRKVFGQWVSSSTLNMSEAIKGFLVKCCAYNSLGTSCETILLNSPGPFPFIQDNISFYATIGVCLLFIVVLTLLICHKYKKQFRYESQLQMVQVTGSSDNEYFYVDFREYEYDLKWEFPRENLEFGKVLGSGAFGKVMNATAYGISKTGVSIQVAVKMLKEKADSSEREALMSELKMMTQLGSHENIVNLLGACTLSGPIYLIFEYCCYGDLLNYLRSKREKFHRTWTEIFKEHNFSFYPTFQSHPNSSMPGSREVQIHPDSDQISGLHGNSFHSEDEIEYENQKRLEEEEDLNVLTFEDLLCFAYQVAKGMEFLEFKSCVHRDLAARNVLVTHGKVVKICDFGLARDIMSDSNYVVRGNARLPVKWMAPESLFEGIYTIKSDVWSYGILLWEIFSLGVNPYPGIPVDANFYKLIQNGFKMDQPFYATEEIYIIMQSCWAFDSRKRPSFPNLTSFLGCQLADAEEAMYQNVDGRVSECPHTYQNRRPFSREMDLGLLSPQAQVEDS
In words: FLT3 enzyme inhibitory ability (ADP-Glo kinase assay). The format is biochemical. The settings on record: human FLT3-ITD enzyme 10 ng, ATP 10 μM, 25° C. 1 hour. An outline of the steps: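 Purified human FLT3-ITD (10 ng) with 10 μM ATP and specific substrate in 40 mM Tris-HCl pH 7.4, 20 mM MgCl2, 0.5 mg/mL BSA, 50 μM DTT, 1 h at 25 °C. ADP formation read by ADP-Glo luminescence; IC50 (nM) versus solvent-treated control.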

A further assay deals with T2, human GST-HPK1 (1-346) (Homo sapiens, UniProt Q92918).
T2 construct: purified human GST-HPK1 (1-346, Signalchem) enzyme; purchased Signalchem
T2 sequence (Q92918 1-346): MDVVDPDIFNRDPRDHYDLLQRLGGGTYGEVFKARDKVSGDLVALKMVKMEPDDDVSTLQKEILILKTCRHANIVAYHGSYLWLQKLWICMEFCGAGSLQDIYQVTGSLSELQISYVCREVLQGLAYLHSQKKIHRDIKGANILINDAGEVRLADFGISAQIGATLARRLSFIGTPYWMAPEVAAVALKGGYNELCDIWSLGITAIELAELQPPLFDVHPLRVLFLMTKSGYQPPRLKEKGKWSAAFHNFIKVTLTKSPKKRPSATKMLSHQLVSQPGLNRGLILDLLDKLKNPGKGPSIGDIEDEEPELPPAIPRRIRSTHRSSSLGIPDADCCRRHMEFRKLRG
In words: HPK1 enzyme inhibitory ability (ADP-Glo kinase assay). The settings on record: human GST-HPK1 3 ng, ATP 3 uM, 25° C. 2 hours. The format is biochemical. An outline of the steps:
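Human GST-HPK1(1-346), 3 ng, reacted with 3 uM ATP and specific substrate in 40 mM Tris-HCl pH 7.4, 20 mM MgCl2, 0.5 mg/mL BSA, 50 uM DTT for 2 h at 25° C. ADP-Glo luminescence read; IC50 (nM) relative to untreated solvent control.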

The test system of a further assay is MCF-7 cells. In words: Breast cancer cell line proliferation inhibitory activity (CellTiter-Glo 2.0). The format is cell-based. The settings on record: Homo sapiens, MCF7, 120 hours. An outline of the steps:
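MCF-7 cells exposed to a 12-point, 3-fold dilution series (final 0.00005–10 μM) for 120 h at 37 °C. Viability read by CellTiter-Glo 2.0 luminescence, expressed as percent of vehicle-treated cells. GI50 (nM) derived from the curves.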

As a reminder, the GI50 is the concentration that inhibits growth by half. What is called IC50 is the concentration that gives 50% inhibition. For `CN(C)CCN(C)c1ccc(Nc2nc(N3N=CCC3c3ccccc3)c3sccc3n2)cc1` (stereo not drawn) [Example 2, N-(2-(dimethylamino)ethyl)-N-methyl-N-(4-(5-phenyl-4,5-dihydro-1H-pyrazol-1-yl)thieno[3,2-d]pyrimidin-2-yl)benzene-1,4-diamine], the GI50 in the assay on RS4;11 cells is greater than 0.5 µM; with MV4-11 cells it was no less than 0.25 µM. On human FLT3-ITD enzyme, this compound yielded an IC50 of 0.25 to 0.5 µM.

As to `C1=NN(c2nc(Nc3ccc(N4CCC(N5CCOCC5)CC4)cc3)nc3ccsc23)C(c2ccccc2)C1` (stereo not drawn) [Example 9, N-(4-(4-morpholinopiperidin-1-yl)phenyl)-4-(5-phenyl-4,5-dihydro-1H-pyrazol-1-yl)thieno[3,2-d]pyrimidin-2-amine], the GI50 in the assay with RS4;11 cells and in the assay on MV4-11 cells was greater than 0.5 µM each time. Also, on human FLT3-ITD enzyme, the IC50 is greater than 0.5 µM.

In the case of `COc1cc(Nc2nc(N3OCC[C@H]3c3ccccc3)c3cc[nH]c3n2)ccc1N1CCC(N2CCN(C)CC2)CC1` [Example 87, (S)-N-(3-methoxy-4-(4-(4-methylpiperazin-1-yl)piperidin-1-yl)phenyl)-4-(3-phenylisoxazolidin-2-yl)-7H-pyrrolo[2,3-d]pyrimidin-2-amine], the IC50 was no less than 0.25 µM against human GST-HPK1 (1-346) and 0.25 to 0.5 µM at human FLT3-ITD enzyme. Besides, the figures for the GI50 with MV4-11 cells and in the assay on MCF-7 cells were no less than 0.25 µM and greater than 0.5 µM, respectively.

Consider `OCCN1CCN(C2CCN(c3ccc(Nc4nc(N5OCC[C@H]5c5ccccc5)c5cc[nH]c5n4)cc3)CC2)CC1` [Example 89, (S)-2-(4-(1-(4-((4-(3-phenylisoxazolidin-2-yl)-7H-pyrrolo[2,3-d]pyrimidin-2-yl)amino)phenyl)piperidin-4-yl)piperazin-1-yl)ethan-1-ol], for which the IC50 is no less than 0.25 µM at human GST-HPK1 (1-346) and 0.25 to 0.5 µM on human FLT3-ITD enzyme. Moreover, the GI50 in the assay with MV4-11 cells was 0.25 to 0.5 µM; in the assay on MCF-7 cells, greater than 0.5 µM.

For the compound `COc1cc(C(=O)N2CCOCC2)ccc1Nc1nc(N2OCC[C@H]2c2ccccc2)c2cc[nH]c2n1` [Example 96, (S)-(3-methoxy-4-((4-(3-phenylisoxazolidin-2-yl)-7H-pyrrolo[2,3-d]pyrimidin-2-yl)amino)phenyl)(morpholino)methanone], the IC50 at human GST-HPK1 (1-346) was greater than 0.5 µM; against human FLT3-ITD enzyme, no less than 0.25 µM. The GI50 in the assay on MV4-11 cells and in the assay with MCF-7 cells was greater than 0.5 µM throughout.

`CCN(CC)CCCOc1c(C)cc(Nc2nc(N3OCC[C@H]3c3ccccc3)c3cc[nH]c3n2)cc1C` [Example 101, (S)-N-(4-(3-(diethylamino)propoxy)-3,5-dimethylphenyl)-4-(3-phenylisoxazolidin-2-yl)-7H-pyrrolo[2,3-d]pyrimidin-2-amine]: the IC50 against human GST-HPK1 (1-346) and against human FLT3-ITD enzyme was no less than 0.25 µM throughout. Also, the GI50 with MV4-11 cells and with MCF-7 cells was greater than 0.5 µM each time.

For the compound `c1ccc([C@@H]2CCON2c2nc(Nc3ccc4c(c3)CNCC4)nc3[nH]ccc23)cc1` [Example 104, (S)-N-(4-(3-phenylisoxazolidin-2-yl)-7H-pyrrolo[2,3-d]pyrimidin-2-yl)-1,2,3,4-tetrahydroisoquinolin-7-amine], the half-maximal inhibitory concentration (IC50) against human GST-HPK1 (1-346) and against human FLT3-ITD enzyme was no less than 0.25 µM throughout. Moreover, the GI50 in the assay with MV4-11 cells and in the assay on MCF-7 cells was greater than 0.5 µM throughout.

As for `CN1CCc2ccc(Nc3nc(N4OCC[C@H]4c4ccccc4)c4cc[nH]c4n3)cc2C1` [Example 105, (S)-2-methyl-N-(4-(3-phenylisoxazolidin-2-yl)-7H-pyrrolo[2,3-d]pyrimidin-2-yl)-1,2,3,4-tetrahydroisoquinolin-7-amine], the IC50 on human GST-HPK1 (1-346) and at human FLT3-ITD enzyme was no less than 0.25 µM in each case. The GI50 in the assay with MV4-11 cells is 0.25 to 0.5 µM; in the assay with MCF-7 cells, greater than 0.5 µM.

On to `CN1CCc2cc(Nc3nc(N4OCC[C@H]4c4ccccc4)c4cc[nH]c4n3)ccc2C1` [Example 109, (S)-2-methyl-N-(4-(3-phenylisoxazolidin-2-yl)-7H-pyrrolo[2,3-d]pyrimidin-2-yl)-1,2,3,4-tetrahydroisoquinolin-6-amine], for which the IC50 on human GST-HPK1 (1-346) and against human FLT3-ITD enzyme was no less than 0.25 µM each time. Also, the GI50 in the assay on MV4-11 cells was no less than 0.25 µM; with MCF-7 cells it was greater than 0.5 µM.

`c1ccc([C@@H]2CCON2c2nc(Nc3ccc4c(c3)CCNC4)nc3[nH]ccc23)cc1` [Example 110, (S)-N-(4-(3-phenylisoxazolidin-2-yl)-7H-pyrrolo[2,3-d]pyrimidin-2-yl)-1,2,3,4-tetrahydroisoquinolin-6-amine]: the IC50 against human GST-HPK1 (1-346) and against human FLT3-ITD enzyme was no less than 0.25 µM each time. Further, the GI50 in the assay with MV4-11 cells is greater than 0.5 µM; in the assay with MCF-7 cells, 0.25 to 0.5 µM.

Consider `CC(C)(O)CN1CCc2cc(Nc3nc(N4OCC[C@H]4c4ccccc4)c4cc[nH]c4n3)ccc2C1` [Example 111, (S)-2-methyl-1-(6-((4-(3-phenylisoxazolidin-2-yl)-7H-pyrrolo[2,3-d]pyrimidin-2-yl)amino)-3,4-dihydroisoquinolin-2(1H)-yl)propan-2-ol], for which the IC50 against human GST-HPK1 (1-346) is no less than 0.25 µM; against human FLT3-ITD enzyme it was 0.25 to 0.5 µM. In addition, the GI50 was no less than 0.25 µM in the assay on MV4-11 cells and greater than 0.5 µM in the assay on MCF-7 cells.

Take `Clc1c[nH]c2nc(Nc3ccc4c(c3)CCNC4)nc(N3OCC[C@H]3c3ccccc3)c12` [Example 117, (S)-N-(5-chloro-4-(3-phenylisoxazolidin-2-yl)-7H-pyrrolo[2,3-d]pyrimidin-2-yl)-1,2,3,4-tetrahydroisoquinolin-6-amine]: the IC50 against human GST-HPK1 (1-346) and on human FLT3-ITD enzyme was no less than 0.25 µM each time. Moreover, the results for the GI50 in the assay with MV4-11 cells and in the assay on MCF-7 cells were greater than 0.5 µM and no less than 0.25 µM, respectively.

For the compound `CN1CCN(C2CCN(c3ccc(Nc4nc(N5OCC[C@H]5c5ccccc5)c5c(C#N)c[nH]c5n4)cc3)CC2)CC1` [Example 119, (S)-2-((4-(4-(4-methylpiperazin-1-yl)piperidin-1-yl)phenyl)amino)-4-(3-phenylisoxazolidin-2-yl)-7H-pyrrolo[2,3-d]pyrimidine-5-carbonitrile], the IC50 against human GST-HPK1 (1-346) and on human FLT3-ITD enzyme was no less than 0.25 µM throughout. Moreover, the GI50 in the assay on MV4-11 cells is no less than 0.25 µM; in the assay with MCF-7 cells, greater than 0.5 µM.

With `N#Cc1c[nH]c2nc(Nc3ccc4c(c3)CCNC4)nc(N3OCC[C@H]3c3ccccc3)c12` [Example 120, (S)-4-(3-phenylisoxazolidin-2-yl)-2-((1,2,3,4-tetrahydroisoquinolin-6-yl)amino)-7H-pyrrolo[2,3-d]pyrimidine-5-carbonitrile], the IC50 at human GST-HPK1 (1-346) and against human FLT3-ITD enzyme was no less than 0.25 µM in each case. For the same compound, the GI50 with MV4-11 cells and with MCF-7 cells was no less than 0.25 µM in each case.
